Measured values published in US11505548B2, “Heterocyclic compounds and their use for treatment of helminthic infections and diseases” (Celgene Corporation, priority 2019, dated 2022).
Where two headings read alike, the source gives them in different places.

Test system: Onchocerca gutturosa Adult Male Worms
Assay: Onchocerciasis in vitro screening model, worm motility score
Type: cell-based
Conditions: read-out: O. gutturosa activity level (IC50 or MED)
[1] = in vitro, Onchocerca gutturosa adult male worms, class A/B/C
[2] = Onchocerca gutturosa, Table 1 O. gutturosa, levels A/B/C, motility or MTT readout not specified

Compound	IC50 [1] [nM]	IC50 [2] [nM]
CN(C)C(=O)c1cccnc1Nc1nc(-c2cc3c(cn2)N(C)CC3)ns1 [Compound 229, N,N-dimethyl-2-(3-(1-methyl-2,3-dihydro-1H-pyrrolo[2,3-c]pyridin-5-yl)-1,2,4-thiadiazol-5-ylamino) nicotinamide]	500 to 5000	–
CC(C)c1cnc(Nc2nc(-c3ccc(OC4CC4)cn3)ns2)cc1C(F)(F)F [Compound 95, 3-(5-cyclopropoxy-pyridin-2-yl)-N-(5-isopropyl-4-(trifluoromethyl)pyridin-2-yl)-1,2,4-thiadiazol-5-amine]	–	< 200
CC(=O)N(C)c1cccnc1Nc1nc(-c2cc(C(F)(F)F)c(OC(C)C)cn2)ns1 [Compound 187, N-(2-(3-(5-isopropoxy-4-(trifluoro-methyl)pyridin-2-yl)-1,2,4-thiadiazol-5-ylamino)pyridin-3-yl)-N-methylacetamide]	–	500 to 5000
Cc1cccnc1Nc1nnc(-c2ccc(OC3CCN(C)CC3)cn2)s1 [Compound 63, 5-(5-(1-methyl-piperidin-4-yloxy)pyridin-2-yl)-N-(3-methylpyridin-2-yl)-1,3,4-thiadiazol-2-amine]	–	500 to 5000
Cc1cccnc1Nc1nc(-c2cc(C(=O)N(C)C)c(OC(C)C)cn2)ns1 [Compound 192, 5-isopropoxy-N,N-dimethyl-2-(5-(3-methylpyridin-2-ylamino)-1,2,4-thiadiazol-3-yl)isonicotin-amide]	–	500 to 5000
CC(=O)N(C)c1cc(C(F)(F)F)cnc1Nc1n[nH]c(-c2cc3c(cn2)N(C(C)C)CC3)n1 [Compound 295, N-(2-(5-(1-isopropyl-2,3-dihydro-1H-pyrro1o[2,3-c]pyridin-5-yl)-1H-1,2,4-triazol-3-ylamino)-5-(trifluoromethyl)pyridin-3-yl)-N-methylacetamide]	500 to 5000	–
COc1ccc(-c2nsc(Nc3cc(OC4CCOCC4)ccn3)n2)nc1 [Compound 46, 3-(5-methoxy-pyridin-2-yl)-N-(4-(tetrahydro-2H-pyran-4-yloxy)pyridin-2-yl)-1,2,4-thiadiazol-5-amine]	–	200 to 500
CC(=O)N(C)c1cc(C(F)(F)F)cnc1Nc1nc(-c2cc3c(cn2)OC(C)(C)C3)ns1 [Compound 272, N-(2-(3-(2,2-dimethyl-2,3-dihydrofuro [2,3-c]pyridin-5-yl)-1,2,4-thiadiazol-5-ylamino)-5-(trifluoromethyl)pyridin-3-yl)-N-methylacetamide]	200 to 500	–
COc1ccc(-c2nnc(Nc3cc(OC(C)C)ccn3)o2)nc1 [Compound 255, N-(4-isoprop-oxypyridin-2-yl)-5-(5-methoxy-pyridin-2-yl)-1,3,4-oxadiazol-2-amine]	500 to 5000	–
COC(=O)c1cc(-c2nsc(Nc3ncccc3C)n2)ncc1OC(C)C [Compound 196, methyl 5-isopropoxy-2-(5-(3-methylpyridin-2-ylamino)-1,2,4-thiadiazol-3-yl)isonicotinate]	–	200 to 500
COc1cccnc1Nc1nc(-c2ccc(OC3CCN(C4CC4)CC3(F)F)cn2)ns1 (stereo not drawn) [Compound 129, 3-(5-(1-cyclopropyl-3,3-difluoro-piperidin-4-yloxy)pyridin-2-yl)-N-(3-methoxypyridin-2-yl)-1,2,4-thiadiazol-5-amine]	–	500 to 5000
CC(C)Oc1ccc(-c2nsc(Nc3nccnc3N(C)C)n2)nc1 [Compound 144, N2-(3-(5-isoprop-oxypyridin-2-yl)-1,2,4-thiadiazol-5-yl)-N3,N3-dimethyl-pyrazine-2,3-diamine]	–	200 to 500
CC(C)Oc1ccc(-c2nsc(Nc3ncc(C(F)(F)F)cc3C(=O)N3CCCC3)n2)nc1 [Compound 328, (2-(3-(5-isoprop-oxypyridin-2-yl)-1,2,4-thiadiazol-5-ylamino)-5-(trifluoromethyl)pyridin-3-yl)(pyrrolidin-l-yl)methanone]	500 to 5000	–
Cc1cccnc1Nc1nc(-c2ccc(OC3CC3)cn2)ns1 [Compound 38, 3-(5-cyclo-propoxypyridin-2-yl)-N-(3-methyl-pyridin-2-yl)-1,2,4-thiadiazol-5-amine]	–	< 200
CC(C)Oc1cnc(-c2nsc(Nc3ncc(C(C)C)cc3C(F)(F)F)n2)cc1C(=O)N(C)C [Compound 219, 5-isopropoxy-2-(5-(5-isopropyl-3-(trifluoromethyl)pyridin-2-ylamino)-1,2,4-thiadiazol-3-yl)-N,N-dimethyliso-nicotinamide]	200 to 500	–
CC(=O)N(C)c1nccnc1Nc1nc(-c2cc3ccn(C(C)C)c3cn2)ns1 [Compound 302, N-(3-(3-(1-isopropyl-1H-pyrrolo[2,3-c]pyridin-5-yl)-1,2,4-thiadiazol-5-ylamino)pyrazin-2-yl)-N-methylacetamide]	< 200	–
COc1ccc(-c2nnc(Nc3cc(OC(C)C)ccn3)[nH]2)nc1 [Compound 257, 4-isopropoxy-N-(5-(5-methoxy-pyridin-2-yl)-4H-1,2,4-triazol-3-yl)pyridin-2-amine]	500 to 5000	–
CC(C)Oc1ccc(-c2nnc(Nc3ccc(C(C)C)cn3)s2)nc1 [Compound 181, 5-(5-isopropoxy-pyridin-2-yl)-N-(5-isopropyl-pyridin-2-yl)-1,3,4-thiadiazol-2-amine]	–	500 to 5000
Cc1cccnc1Nc1nc(-c2ccc(OC3CCN(C)CC3)cn2)n[nH]1 [Compound 71, 3-methyl-N-(3-(5-(1-methyl-piperidin-4-yloxy)pyridin-2-yl)-1H-1,2,4-triazol-5-yl) pyridin-2-amine]	–	500 to 5000
Cc1cccnc1-c1nsc(Nc2ccc(N3CCCC3)cn2)n1 [Compound 51, 3-(3-methyl-pyridin-2-yl)-N-(5-(pyrrolidin-1-yl)pyridin-2-yl)-1,2,4-thiadiazol-5-amine]	–	< 200
Cc1cccnc1Nc1nc(-c2cc(C(F)(F)F)c(OC3CC3)cn2)ns1 [Compound 102, 3-(5-cyclo-propoxy-4-(trifluoromethyl)pyridin-2-yl)-N-(3-methyl-pyridin-2-yl)-1,2,4-thiadiazol-5-amine]	–	500 to 5000
CC(C)Oc1ccc(-c2nsc(Nc3cc(C(F)(F)F)c(C(C)C)cn3)n2)nc1 [Compound 119, 3-(5-isopropoxy-pyridin-2-yl)-N-(5-isopropyl-4-(trifluoromethyl)pyridin-2-yl)-1,2,4-thiadiazol-5-amine]	–	< 200
Cc1cccnc1Nc1nnc(-c2ccc(OC(C)C)cn2)s1 [Compound 64, 5-(5-isopropoxy-pyridin-2-yl)-N-(3-methyl-pyridin-2-yl)-1,3,4-thiadiazol-2-amine]	–	500 to 5000
O=C(NCC1CC1)c1ccc(Nc2nc(-c3ccc(OC4CC4)cn3)ns2)nc1 [Compound 106, 6-(3-(5-cyclo-propoxypyridin-2-yl)-1,2,4-thiadiazol-5-ylamino)-N-(cyclopropyl-methyl) nicotinamide]	–	500 to 5000
CCOc1ccc(Nc2nc(-c3ncccc3F)no2)nc1 [Compound 25, N-(5-ethoxy-pyridin-2-yl)-3-(3-fluoropyridin-2-yl)-1,2,4-oxadiazol-5-amine]	–	< 200
CC(=O)N(C)c1cccnc1Nc1nc(-c2cc(C(C)C)c(C)cn2)ns1 [Compound 223, N-(2-(3-(4-isopropyl-5-methylpyridin-2-yl)-1,2,4-thiadiazol-5-ylamino)pyridin-3-yl)-N-methyl-acetamide]	200 to 500	–
CC(=O)N(C)c1cccnc1Nc1nc(-c2ccc(OC3CCOCC3)cn2)ns1 [Compound 199, N-methyl-N-(2-(3-(5-(tetrahydro-2H-pyran-4-yloxy)pyridin-2-yl)-1,2,4-thiadiazol-5-ylamino)pyridin-3-yl)acetamide]	500 to 5000	–
